Experimental data taken from US20070213291A1, “Therapeutically useful synthetic oligonucleotides” (priority 1999, published 2007).

How the values were obtained:
Assay type in all cases: cell-based
[1] = test system: Jurkat human leukemia T cells; test: Inhibition of Jurkat human leukemia T cell proliferation (MTT reduction); conditions: 100 μg/ml sequence, 48 h, 2.5×10^5 cells/ml
Summary of the method: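 Jurkat cells at 2.5×10^5 cells/ml exposed to 100 μg/ml of 2–45-base A/C/G/T sequences (0 μg/ml control) for 48 h, 37° C, 5% CO2. Viability by MTT reduction read at 570 nm.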

[2] = test system: Jurkat human leukemia T cells; test: NuMA release into supernatant (ELISA); conditions: for % NUMA RELEASED: Jurkat 1×10^6/ml; for % NuMA released (treated vs untreated cells): Jurkat, 50 μM sequence
Description: (§1) The redistribution of phosphatidylserine in the plasma membrane during apoptosis was measured by flow cytometry using FITC-conjugated annexin V (BD Pharmingen, San Diego, Calif.). NuMA release into the supernatant was determined using a commercial ELISA kit (Oncogen/Calbiochem, Cambridge, Mass.).
Jurkat human leukemia T cells were incubated with 50 μM of 3, 4, 5, 6 and 7 GT base sequences, a 5 base ACGT sequence, 6 base AG, GG, AGT and CGT sequences and a 7 base GG sequence.
Jurkat human leukemia T cells (1×10^6/ml) were incubated with 6 and 27 GT base sequences (Table 32). NuMA was determined as in Example 23.
Jurkat human cell leukemia T cells were incubated for 24 h with 6 base GT SEQ ID NO:25, complementary 6 base AC SEQ ID NO:79, and 6 base GT SEQ ID NO:25+6 base AC SEQ ID NO:79. GT SEQ ID NO:25 and AC SEQ ID NO:79 were hybridized by mixing the sequences (1:1) and heating for 10 minutes at 65° C. As controls, GT SEQ ID NO:25 and AC SEQ ID NO:79 were heated for 10 minutes at 65° C. (Table 33). Apoptosis was evaluated as in Example 23.

[3] = test system: Jurkat human leukemia T cells; test: Cell cycle stage in Jurkat cells (propidium iodide flow cytometry); conditions: Jurkat, 24 h, 100 μg/ml
Summary of the method: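 Exponentially growing Jurkat cells were exposed for 24 h to 2–45-base A/C/G/T oligonucleotides, or at 1×10^6 cells/ml to 6-base GT and AC strands, alone (heated 10 min, 65 °C) or hybridized 1:1. Detergent-, trypsin-, RNase- and spermine-treated nuclei were propidium iodide-stained and scored for G0/G1, early/mid/late S and G2/M by doublet-discriminating flow cytometry.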

[4] = test system: Jurkat human leukemia T cells; test: Apoptosis by phosphatidylserine/annexin V-FITC flow cytometry; conditions: 50 μM sequence
Description: as §1
Jurkat human leukemia T cells were incubated with 50 μM of 3, 4, 5, 6 and 7 GT base sequences, a 5 base ACGT sequence, 6 base AG, GG, AGT and CGT sequences and a 7 base GG sequence. […]
Jurkat human leukemia T cells were incubated with GT-rich or AC-rich sequences derived from the murA gene of Mycobacterium phlei (GenBank: Accession Number X99776). Inhibition of proliferation was measured by the reduction of MTT as in Example 3, cell cycle arrest was detected by flow cytometry using propidium iodide as in Example 21 and apoptosis was evaluated by flow cytometry using annexin-V-FITC as in Example 23.

| Sequence | % INHIBITION of Jurkat human leukemia T cell proliferation [1] [%] | % NUMA RELEASED [2] [%] | % of cells in phase: G0/G1 [3] [%] | % of cells in phase: G2/M [3] [%] | % of cells in phase: SE [3] [%] | % of cells in phase: SL [3] [%] | % of cells in phase: SM [3] [%] | Arrest (cell cycle) [3] | % of cells in apoptosis (positive for PS/A-V staining) [4] [%] | % NuMA released (treated vs untreated cells) [2] [%] |
| --- | --- | --- | --- | --- | --- | --- | --- | --- | --- | --- |
| GGGGGGGTGGGGGGGTGGGGGGGTGGG (unmodified DNA) [SEQ ID NO:4] | 11 | 90 | 36.5 | 22.3 | 16.3 | 11.1 | 13.8 | None |  |  |
| GGGGGTGGGGGTGGGGGTGGGGGTGGG (unmodified DNA) [SEQ ID NO:3] | 24 | 139 | 40.5 | 23.6 | 13.3 | 9.7 | 12.9 | None |  |  |
| GGGGTGG (unmodified DNA) [SEQ ID NO:62] | 41 |  |  |  |  |  |  |  | 30 | 123 |
| GGGTG (unmodified DNA) [SEQ ID NO:61] | 50 |  |  |  |  |  |  |  | 25 | 92 |
| GGGTGGGTGGGTGGGTGGGTGGGTGGG [SEQ ID NO:2] | 23 | 49 | 34.3 | 26.4 | 15.5 | 10.3 | 13.6 | None |  |  |
| GGTG (unmodified DNA) [SEQ ID NO:56] | 54 |  |  |  |  |  |  |  | 24 | 112 |
| GGTGG (unmodified DNA) [SEQ ID NO:60] | 50 |  |  |  |  |  |  |  | 25 | 120 |
| GTGG (unmodified DNA) [SEQ ID NO:52] | 52 |  |  |  |  |  |  |  | 24 | 60 |
